Measurements reported in paper PMC12188386, “Selective CBP/EP300 Bromodomain Inhibitors: Novel Epigenetic Tools to Counter TNF-α-Driven Inflammation” (JACS Au, 2025).
In brackets after ≈: the same amount, converted by molar mass.

Experiments:
[1] = target: BRD4(1) (Homo sapiens, UniProt O60885); experiment: BROMOscan bromoKdELECT; type: binding; conditions: commercial Bromoscan assay
Procedure: (§1) was used as the calibration curve. To obtain saturated solutions of the compounds of interest, in duplicates 4.4 µL of a 10 or 5 mM stock in DMSO was added to 436 µL Buffer (PBS, pH = 7.4), to give a final concentration of 100 or 50 µM. Samples were incubated on a shaker (500 rpm) at 37°C for 90 minutes and then filtered (Millex-GV 13 mm, 0.22 µm). 304 µL of the filtrate was mixed with 76 µL of acetonitrile on a dilution plate, from which 350 µL was transferred to a UV-plate and UV-absorption was read using a SpectraMax M5 (Molecular devices). The absorbance was blank-corrected and compared to the calibration curve to […]
(§2) solubility. The wavelengths used for the calibration curve are available in Table S4.
Sample preparation in CAPTISOL® […]
lower solubility (2) compounds respectively in a 12.5 w/v% CAPTISOL® solution in water. In a precisely tared vial, required amounts of compounds and CAPTISOL® were weighed out as solids. Based on the known density of 12.5 % CAPTISOL® solution (d = 1.05755 g/mL at 25 °C), the precise weight of the resulting solution and so the required amount of water by weight was calculated. The water was added portion wise with agitation, vortexing and sonication cycles in between additions. The saturated solutions were then filtered (Millex-GV 13 mm, 0.22 µm). In duplicates, aliquots of the filtrates were taken and diluted with blank 12.5 % CAPTISOL® water solution in either a 1:14 (higher sol. compounds) or 1:7 (lower sol. compounds) ratio, 350 µL was transferred to a 96-Well Plate (Greiner, UV-star) then UV absorption (240-400 nm, 10 nm steps) was measured using a SpectraMax M5 (Molecular devices). […] The calculated concentrations are available in Table S4. […]
The bromodomain concentration in the eluates was measured by qPCR.
Test compounds were prepared as 1000X stocks in DMSO and distributed by acoustic transfer (non-contact dispensing). […] KDs were determined using an 11-point 3-fold compound dilution series with one DMSO control point, and were calculated with a standard dose-response curve using the Hill equation: […]

[2] = kinetic solubility; type: physicochemical; conditions: PBS buffer, aqueous buffer, kinetic from dmso stock, PBS pH 7.4, 37°C, ± st. dev. between technical replicates, read-out: Kin. Sol.
Procedure: Starting from an initial concentration of 100, 50 or 20 µM, a 2-fold serial dilution of the compound (10 mM stock in DMSO) was prepared in a mixture of ACN/Buffer (PBS, pH = 7.4) 2:8, with 1% DMSO. 350 µL was transferred to a 96-Well Plate (Greiner, UV-star) then UV absorption (240-400 nm, 10 nm steps) was measured. The absorption was blank-corrected and plotted against concentration. The wavelength (λ) providing the best fitting straight line […]
as §1, §2
Based on the known density of 12.5 % CAPTISOL® solution (d = 1.05755 g/mL at 25 °C), the precise weight of the resulting solution and so the required amount of water by weight was calculated. The water was added portion wise with agitation, vortexing and sonication cycles in between additions. The saturated solutions were then filtered (Millex-GV 13 mm, 0.22 µm). In duplicates, aliquots of the filtrates were taken and diluted with blank 12.5 % CAPTISOL® water solution in either a 1:14 (higher sol. compounds) or 1:7 (lower sol. compounds) ratio, 350 µL was transferred to a 96-Well Plate (Greiner, UV-star) then UV absorption (240-400 nm, 10 nm steps) was measured using a SpectraMax M5 (Molecular devices). The absorption was blank-corrected, compared to the calibration curve obtained during the solubility measurement method above and finally corrected for the dilution ratio to obtain the compound concentration in the saturated 12.5 % CAPTISOL® solution. The calculated concentrations are available in Table S4.
BROMOscan™ assays (provided by Eurofins DiscoverX, US)1,2 […]
coli host derived from the BL21 strain. E. coli were grown to log-phase and infected with T7 phage from a frozen stock (multiplicity of infection = 0.4) and incubated with shaking at 32°C until lysis (90-150 minutes). The lysates were centrifuged (5,000 x g) and filtered (0.2µm) to remove cell debris. Streptavidin-coated magnetic beads were treated with biotinylated small molecule or acetylated peptide ligands for 30 minutes at room temperature to generate affinity resins for bromodomain assays. The liganded beads were blocked with excess biotin and washed with blocking buffer (SeaBlock (Pierce), 1 % BSA, 0.05 % Tween 20, 1 mM DTT) to remove unbound ligand and to reduce non specific phage binding. Binding reactions were assembled by combining bromodomains, liganded affinity beads, and test compounds (see […]
Sodium azide, 7.4 mM DTT). All reactions were performed in polypropylene 384-well plates in a final volume of 0.02 mL. The assay plates were incubated at room temperature with […]
20). The beads were then resuspended in elution buffer (1x PBS, 0.05% Tween 20, 2 µM non-

[3] = tested on: myc expression in LP1 cells; experiment: myc mRNA expression by RT-qPCR; type: cell-based; conditions: 4 h treatment of LP1 cells with 1 μM compound
Procedure: For myc expression, 1x10^6 LP1 cells were plated the day prior to a 4 h treatment with compounds at a final DMSO concentration of 0.1 %. […]
In all cases, total
RNA was extracted using the NucleoSpin® RNA kit (Machery -Nagel) and used for cDNA synthesis with the High -Capacity cDNA Reverse Transcription kit (Applied Biosystems). RT-qPCR reactions were performed using PowerSYBR™ green PCR Master Mix (Applied Biosystems) and a LightCycler® 480 (Roche). cDNA was denatured for 10 min at 95 °C followed by 40 cycles of 15 s at 95 °C and 1 min at 60 °C. Cp values were determined as the maximum of the second derivative and target gene expression was compared to that of hprt from the same sample using the 2-ΔCp method. Gene expression was then normalized to the average of the control samples from the same day, or all biological replicates. […]

Structure (SMILES)	Kd [1] [µM]	solubility kinetic at 90 min [2] [µM]	myc mRNA expression [3]
CC(=O)Nc1cc(NC(=O)c2ccco2)cc(C(=O)Nc2cccc3nnc(C)cc23)c1 [Compound 1]	5.8	22.2 ± 1.3 (≈ 9.53 µg/mL)	not observed
Cc1cc2c(NC(=O)c3cc(NC(=O)c4ccco4)cc(-c4ccn(C)n4)c3)cccc2nn1 [Compound 2]	3.7	3.2 ± 1.3 (≈ 1.45 µg/mL)	significantly decrease myc expression levels
Cc1cc2c(NC(=O)c3cc(NC(=O)[C@H]4CCCO4)cc(-c4ccn(C)n4)c3)cccc2nn1 [Compound 5]	5.1	69.7 ± 0.6 (≈ 31.8 µg/mL)	significantly decreased the expression level of myc
